Laboratory results published in article PMC4489319 (ACS Infectious Diseases, 2015).

T1: ChsE4 (Rv3504, formerly FadE26), N-terminal His6 tag (Mycobacterium tuberculosis H37Rv, UniProt I6YCA3 1-400)
T1 sequence: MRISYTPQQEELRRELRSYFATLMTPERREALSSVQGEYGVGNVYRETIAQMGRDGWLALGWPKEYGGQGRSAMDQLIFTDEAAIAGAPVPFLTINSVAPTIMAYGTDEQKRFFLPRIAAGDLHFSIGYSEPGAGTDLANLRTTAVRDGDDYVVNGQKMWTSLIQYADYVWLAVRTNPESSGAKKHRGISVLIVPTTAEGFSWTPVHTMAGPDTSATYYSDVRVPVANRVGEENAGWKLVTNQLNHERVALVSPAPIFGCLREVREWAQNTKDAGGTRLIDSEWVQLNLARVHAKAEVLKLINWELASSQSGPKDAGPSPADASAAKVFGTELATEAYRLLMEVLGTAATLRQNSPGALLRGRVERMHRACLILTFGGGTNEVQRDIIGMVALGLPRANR


Experiments:
[1] = target: ChsE4-ChsE5 (Mycobacterium tuberculosis, UniProt I6YCA3)
[2] = target: T1, ChsE4 (Rv3504, formerly FadE26), …; experiment: AUC + other: LC/UV/MS

| Molecule | KM [1] | binding result [2] |
| --- | --- | --- |
| CC(CCC[C@@H](C)[C@H]1CC[C@H]2[C@@H]3CCC4=CC(=O)CC[C@]4(C)[C@H]3CC[C@]12C)C(=O)SCCNC(=O)CCNC(=O)[C@H](O)C(C)(C)COP(=O)(O)OP(=O)(O)OC[C@H]1O[C@@H](n2cnc3c(N)ncnc32)[C@H](O)[C@@H]1OP(=O)(O)O (some centres unmarked) [3-OCS-CoA] | 20 ± 2.7 µM | – |
| ChsE5 (Rv3505, formerly FadE27) (enzyme) MDFTTTEAAQDLGGLVDTIVDAVCTPEHQRELDKLEQRFDRELWRKLIDAGILSSAAPESLGGDGFGVLEQVAVLVALGHQLAAVPYLESVVLAAGALARFGSPELQQGWGVSAVSGDRILTVALDGEMGEGPVQAAGTGHGYRLTGTRTQVGYGPVADAFLVPAETDSGAAVFLVAAGDPGVAVTALATTGLGSVGHLELNGAKVDAARRVGGTDVAVWLGTLSTLSRTAFQLGVLERGLQMTAEYARTREQFDRPIGSFQAVGQRLADGYIDVKGLRLTLTQAAWRVAEDSLASRECPQPADIDVATAGFWAAEAGHRVAHTIVHVHGGVGVDTDHPVHRYFLAAKQTEFALGGATGQLRRIGRELAETPA | – | binds |
